According to article PMC5382548 (Scientific Reports, 2015):
Read-outs that look alike come from different tables or passages of the source.

Tests used:
[1] = test system: T-loop, a 26-mer hairpin double-stranded DNA; assay: FRET melting assay, T-loop hairpin ds-DNA; format: binding; conditions: ds-DNA 0.2 μM, ligand 1 μM, K-cacodylate buffer pH 7.4, 60 mM K+
Protocol: (§1) Fluorescence resonance energy transfer (FRET) studies with DNA sequences labelled at the 5′ and 3′ ends, were conducted to evaluate the G4 DNA stabilizing properties of IQcs (at 0.1 to 5 μM ligand concentrations). The G4-forming sequence KRAS21R[11], together with T-loop, a 26-mer hairpin double-stranded DNA (ds-DNA) sequence were used in the first screening assay. Reproducible IQc dose-dependent melting curves (Sup. Inf.; Figure S3) and stabilization temperature (ΔTm) values were obtained (Figure 2 and Table S5).
(§2) Figure 2 FRET stabilization temperatures (ΔTm) of KRAS21R G4 and hairpin ds-DNA (T-loop) at 0.2 μM, in K-cacodylate buffer (pH = 7.4, 60 mM K^+), stabilized by IQc derivatives and TMPyP4 at 1 μM. ^a) SD ≤ 0.2°C. TEXT PRINTED IN THE PICTURE: TMPyP4: ΔTm / °C ^a) (T-Loop): 16.0; ΔTm / °C ^a) (KRAS21R): 25.1 | 3e: ΔTm / °C ^a) (T-Loop): 6.5; ΔTm / °C ^a) (KRAS21R): 22.0 | 3d: ΔTm / °C ^a) (T-Loop): 5.6; ΔTm / °C ^a) (KRAS21R): 19.9 | 2d: ΔTm / °C ^a) (T-Loop): 6.1; ΔTm / °C ^a) (KRAS21R): 15.1 | 2a: ΔTm / °C ^a) (T-Loop): 1.5; ΔTm / °C ^a) (KRAS21R): 4.4 […]
(§3) Oligonucleotide sequences were purchased from Eurofins MWG Synthesis GmbH, Germany or STAB VIDA Genomics Lab, Caparica, Lisbon, Portugal. The labelled oligonucleotides used in the FRET assays had attached the donor fluorophore FAM (6-carboxyfluorescein) and the acceptor fluorophore TAMRA (6-carboxytetramethylrhodamine): KRAS21R: 5′-FAM-[…]-TAMRA-3′; KRAS32R: 5′-FAM-[…]-TAMRA-3′; UTR-1: 5′-FAM-GCGGCGGCGGAGG-TAMRA-3′; UTR-2: 5′-FAM-[…]-TAMRA-3; T-Loop:5′-FAM-[…]-TAMRA-3′; F21T: 5′-FAM-[…]-TAMRA-3′. Non-labelled oligonucleotides were used in FRET competition assays and in the spectroscopic studies: ds26: - d(5′-CAATCGGATCGAATT CGATCCGATTG-3′); KRAS21R: 5′-[…]-3′; HT21: 5′-[…]-3′. Each oligonucleotide was initially diluted to a storage solution at 100 μM in nuclease-free water (not DEPC-treated), purchased from Ambion Applied Biosystems UK.
(§4) The ability of indolo[3,2-c]quinolines to stabilize DNA sequences was investigated using a Fluorescence Resonance Energy Transfer (FRET) assay as reported elsewhere.
(§5) Figure S3 (cont.)| Concentration-dependent (0.1, 0.5, 1, 2, 3, 4 and 5 µM) FRET melting profiles of G4 structures and T-loop DNA with indolo[3,2-c]quinoline derivatives 1a, 2a-g and 3d-j in K-cacodylate buffer (pH 7.4, 60 mM K+). […]
(§6) Table S5 | FRET stabilization temperatures (ΔTm) of G4s sequences and ds-DNA (0.2 µM) stabilized by […]

SW620 (metastatic colon) = assay: MTS short-term cytotoxicity assay, SW620; format: cell-based; conditions: Homo sapiens, read-out: IC50 SW620
Protocol: (§7) Short-term anti-proliferative assays were carried out by two different assays using a panel of human cancer and non-malignant human cell lines. […] The transformed human embryonic kidney cell line HEK293T (wt KRAS) was sensitive to all tested drugs, including TMPyP4, a cationic porphyrin established as a G4 ligand, as well as the anticancer drug 5-fluorouracil (5-FU).
HCT116 human colon carcinoma cells, SW620 human colorectal adenocarcinoma and HEK293 T human embryonic kidney cells were grown in Dulbecco's modified Eagle's medium (DMEM) supplemented with 10% fetal bovine serum, and 1% antibiotic/antimycotic (Invitrogen, Grand Island, NY, USA) and maintained at 37°C in a humidified atmosphere of 5% CO2. Cells were seeded in 96 well plates at 5.000 cells/well. Twenty-four hours after cell plating, media was removed and replaced with fresh media containing test compounds and 5-FU (Sigma), a common cytotoxic agent used in colon cancer treatmen, or vehicle control (DMSO). Following 72 h of compound exposure, cell viability was evaluated using the CellTiter 96 AQueous Non-Radioactive Cell Proliferation Assay (Promega, Madison, WI, USA), using 3-(4,5-dimethylthiazol-2-yl)-5-(3-carboxymethoxyphenyl)-2-(4-sulfophenyl)-2H-tetrazolium, inner salt (MTS) as previously described. Cell viability data were expressed as mean ± SEM or mean ± SD from at least three independent experiments. IC50 and IC65 values were determined using GaphPad Prism v.5.00 (GraphPad Software). (Performed at Cell Function and Therapeutic Targeting Group, iMed.ULisboa)

KRAS21R G4 = assay: FRET melting assay, KRAS21R G4; format: binding, human; conditions: G4 0.2 μM, ligand 1 μM, K-cacodylate buffer pH 7.4, 60 mM K+
Protocol: as §1, §2, §3, §4, §5, §6

WI-38 (lung fibroblast) = assay: SRB short-term cytotoxicity assay, WI-38; format: cell-based; conditions: Homo sapiens, 96 h
Protocol: as §7
Human cell lines, breast carcinoma (MCF7), lung carcinoma (A549), pancreatic cancer (MIA PaCa2, Panc-1), immortalised telomerase-negative human lung fibroblast (ALT) and normal human lung fibroblast (WI-38), were all purchased from American Type Cell Culture (ATCC). Cell lines were maintained in appropriate medium supplemented with 10% fetal bovine serum (Invitrogen, UK), 2 mM L-glutamine (Invitrogen, Netherlands), and other components as specified by the suppliers. All cell lines were maintained at 37°C, 5% CO2, and routinely passaged. Short-term growth inhibition was measured using the SRB assay as described previously[43] (additional details described in Supplementary Information). […]
Sulforhodamine B (SRB) short-term cytotoxicity assay
Cells were seeded at appropriate densities into the wells of 96 well plates in their corresponding medium and incubated overnight to allow the cells to attach. Subsequently cells were exposed to various concentrations of freshly made solutions of drugs and incubated for 96 h. The cells were subsequently fixed with ice-cold trichloacetic acid (TCA) (10%, w/v) for 30 min and stained with 0.4% SRB dissolved in 1% acetic acid for 15 min.
All incubations were carried out at room temperature except for TCA fixation, which was at 4 °C. The IC50 value, the concentration required to inhibit cell growth by 50%, was determined from the mean absorbance at 540 nm for each drug concentration expressed as a percentage of the control untreated well absorbance. (Performed at School of Pharmacy, University College of London). […]
(#sc-30/sc-126; Santa Cruz Biotechnology Inc., Santa Cruz, CA, USA). […]

SMILES | FRET stabilization temperature ΔTm (T-loop) [1] [°C] | IC50 (SW620 (metastatic colon); SW-620, 72 h) [µM] | FRET stabilization temperature ΔTm (KRAS21R) (KRAS21R G4) [°C] | IC50 (SW620 (metastatic colon); SW-620, MTS assay, 72 h) [µM] | IC50 (WI-38 (lung fibroblast)) [µM]
C[n+]1ccc(-c2c3nc(c(-c4cc[n+](C)cc4)c4ccc([nH]4)c(-c4cc[n+](C)cc4)c4ccc([nH]4)c(-c4cc[n+](C)cc4)c4nc2C=C4)C=C3)cc1 [TMPyP4, reference compound] | 16.0 | > 20 | 25.1 |  | 
CCN(CC)CCCNc1ccc2c(c1)c1[nH]c3ccccc3c1c[n+]2C [2d] | 6.1 |  | 15.1 | 0.59 | 4.86
CCN(CC)CCCNc1ccc2c(c1)[nH]c1c2c[n+](C)c2ccc(NCCCN(CC)CC)cc12.[Cl-] [3e] | 6.5 |  | 22.0 | 1.79 | 10.1
Cn1cc2c3ccccc3nc-2c2cc(Br)ccc21 [2a, 2-bromo-5-methyl-indolo[3,2-c]quinoline] | 1.5 |  |  | 0.2 | 6.26
CCN(CC)CCCNc1ccc2[nH]c3c(c[n+](C)c4ccc(NCCCN(CC)CC)cc34)c2c1.[Cl-] [3d] | 5.6 |  | 19.9 | 4.74 | 
